The target of one data set is T1, RPE65 (Gallus gallus, UniProt Q9YGX2).
T1 sequence (Q9YGX2 1-533): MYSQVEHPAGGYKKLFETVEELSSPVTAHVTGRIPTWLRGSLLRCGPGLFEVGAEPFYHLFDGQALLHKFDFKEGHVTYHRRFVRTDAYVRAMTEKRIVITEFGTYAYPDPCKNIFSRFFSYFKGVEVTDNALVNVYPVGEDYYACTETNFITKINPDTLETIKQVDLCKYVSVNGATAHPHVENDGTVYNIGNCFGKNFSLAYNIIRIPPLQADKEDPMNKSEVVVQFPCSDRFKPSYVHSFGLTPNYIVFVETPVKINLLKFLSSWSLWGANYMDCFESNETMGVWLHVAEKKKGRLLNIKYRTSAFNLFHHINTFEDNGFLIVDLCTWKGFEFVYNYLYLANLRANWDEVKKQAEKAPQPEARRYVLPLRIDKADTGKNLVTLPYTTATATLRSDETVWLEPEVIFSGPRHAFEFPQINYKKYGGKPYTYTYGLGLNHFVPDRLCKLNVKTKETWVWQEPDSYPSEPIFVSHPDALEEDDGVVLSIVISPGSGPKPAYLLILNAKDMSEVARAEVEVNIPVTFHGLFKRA
Put plainly: Liposome-based isomerase assay with purified RPE65. The class given is biochemical, chicken. The protocol:
FIG. 3. Uncompetitive inhibition of RPE65 isomerase by RPE65-61. All-trans-retinyl ester incorporated in liposomes was used as a substrate for purified RPE65 in the isomerase assay. (FIG. 3A) HPLC elution profile of the reaction products without inhibitor; (FIG. 3B) with 180 nM of RPE65-61; Peak 1, retinyl esters; Peak 2, 11-cis-retinol; Peak 3, all-trans-retinol. (FIG. 3C) Lineweaver-Burk plot of 11-cis-retinol generated by RPE65. Liposomes with increasing concentrations (S) of all-trans-retinyl palmitate were incubated with 25 μg of purified chicken RPE65 in the absence (♦) or in the presence of RPE65-61 (180 nM) (▪).
All-trans [11,12-^3H]-retinol (1 mCi/ml, 45.5 Ci/mmol, Perkin Elmer, Boston, MA) in N,N-dimethyl formamide (DMF) was used as the substrate for the isomerohydrolase assay. Bovine RPE microsomes were prepared as described previously. […] The upper layer was collected and the generated retinoids were analyzed by normal phase HPLC as described (Moiseyev, G. et al. 2003). […] The isomerohydrolase activity was calculated from the area of the 11-cis retinol peak using Radiomatic 610TR software (Perkin Elmer, Boston, MA) with synthetic 11-cis [^3H]-retinol as a standard. […] The retinoid profile after completion of the reaction was analyzed by HPLC where the peaks were identified by co-elution with retinoid standards. […]

Data set [1] can be described thus: Sequestration of all-trans-retinal (atRAL) in vitro. The conditions noted are these: 100 μM compound, equimolar atRAL, 30 min.
Protocol: Test compounds (100 μM) were incubated with equimolar amounts of all-trans-retinal for 30 min. The UV-vis spectra were collected and the concentration of all-trans-retinal was assessed based on the 370 nm absorbance. (FIG. 11A) Graph bars show mean atRAL levels normalized to DMSO; error bars show SD; one-way ANOVA with Holm-Sidak post-hoc test was used for statistical analysis; *P<0.05; ****P<0.0001.
The target in a further data set is T2, VAP-1 (Homo sapiens, UniProt Q16853).
T2 sequence (Q16853 29-763 limits assumed): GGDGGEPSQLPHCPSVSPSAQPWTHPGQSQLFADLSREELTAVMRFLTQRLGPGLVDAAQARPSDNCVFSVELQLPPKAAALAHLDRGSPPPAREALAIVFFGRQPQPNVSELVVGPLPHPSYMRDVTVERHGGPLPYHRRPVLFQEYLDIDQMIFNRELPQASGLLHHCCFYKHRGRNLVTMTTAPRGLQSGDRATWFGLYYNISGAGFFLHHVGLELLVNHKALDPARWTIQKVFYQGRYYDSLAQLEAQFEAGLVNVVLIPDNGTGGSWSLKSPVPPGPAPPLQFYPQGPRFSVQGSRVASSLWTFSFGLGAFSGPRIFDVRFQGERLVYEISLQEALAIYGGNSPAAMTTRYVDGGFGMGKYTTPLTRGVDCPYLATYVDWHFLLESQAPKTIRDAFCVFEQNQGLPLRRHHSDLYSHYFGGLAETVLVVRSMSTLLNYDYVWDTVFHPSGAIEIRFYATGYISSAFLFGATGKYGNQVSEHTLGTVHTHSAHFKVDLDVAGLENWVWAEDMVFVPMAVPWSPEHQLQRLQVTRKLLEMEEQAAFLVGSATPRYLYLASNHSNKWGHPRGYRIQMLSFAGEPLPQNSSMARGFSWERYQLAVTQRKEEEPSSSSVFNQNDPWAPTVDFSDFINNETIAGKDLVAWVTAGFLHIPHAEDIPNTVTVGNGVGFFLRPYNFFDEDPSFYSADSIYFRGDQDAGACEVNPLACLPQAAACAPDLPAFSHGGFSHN
Put plainly: in vitro. The note with it: both, plasma, pH 7.4.

SMILES strings stand for the structures.

A word on the Ki: it is the equilibrium dissociation constant of an inhibitor or competing ligand from its target. Low values mean higher affinity, high ones lower affinity. A word on the half-life: it is how long it takes for the measured level to halve.

Protocol for VAP-1: Studies were carried out in mixed-gender human plasma (Lot #HMN330460) and male Beagle dog plasma (Lot #BGL118112), obtained from BioIVT and collected on sodium heparin. Plasma was adjusted to pH 7.4 prior to initiating the experiments. DMSO stocks were first prepared for the test articles. Aliquots of the DMSO solutions were dosed into 1 mL of plasma, which had been pre-warmed to 37° C., at a final test article concentration of 1 μM. The vials were kept in a benchtop Thermomixer® for the duration of the experiment. Aliquots (100 μL) were taken at each time point (0, 15, 30, 60, and 120 minutes) and added to 96-well plates, which had been pre-filled with 300 μL of acetonitrile (ACN). Samples were stored at 4° C. until the end of the experiment. After the final time point was sampled, the plate was mixed and then centrifuged at 3,000 rpm for 10 minutes. Aliquots of the supernatant were removed, diluted 1:1 into distilled water, and analyzed by LC-MS/MS. The peak area response ratio to internal standard (PARR) was compared to the PARR at time 0 to determine the percent of test article remaining at each time point. Half-lives were calculated using GraphPad software, fitting to a single-phase exponential decay equation.

`N=S(=O)(CCN)c1cccc(OCC2CCCCC2)c1` (racemic) [RPE65-61, (±)-(2-aminoethyl) (3-(cyclohexylmethoxy)phenyl) (imino)-λ^6-sulfanone]: the “mode of RPE65 inhibition” value on RPE65 (liposome-based assay with recombinant RPE65) is on record as “uncompetitive inhibitor”. This compound returned a Ki at RPE65 (liposome-based assay, 180 nM inhibitor) of 0.15 µM. The compound further returned an atRAL reduction in data set [1] of 80%. In addition, the half-life at 1 μM at VAP-1 is > 2 h.

Source of the values: patent publication US20240245647A1, “ISOMEROHYDROLASE INHIBITOR FOR TREATMENT OF ATROPHIC FORM OF AGE-RELATED MACULAR DEGENERATION AND STARGARDT DISEASE” (The Trustees of Columbia University in the City of New York, priority 2021, published 2024).
